≈ marks a conversion by molar mass, not a printed value. Calls of active or inactive are those of the source. The rule behind the calls is not given here.
Tests used:
[1] = Antiproliferative activity against human MOLM16 cells after 72 hrs by Cell Titer-Blue assay; type: functional; conditions: MOLM16, 72 h
in vitro = conditions: rat, liver microsomes
[2] = target: Voltage-gated inwardly rectifying potassium channel KCNH2 (Homo sapiens, UniProt Q12809); test: Inhibition of human ERG
[3] = Equilibrium solubility of the compound in phosphate buffer after 24 hrs at pH 7.4; type: physicochemical
[4] = target: T1, Serine/threonine-protein kinase pim-3 (Homo sapiens, UniProt Q86V86); test: Inhibition of human PIM3 using FITC-(AHX)RSRHSSYPAGT-COOH as substrate after 90 mins by mobility shift assay in presence of 50 uM ATP
[5] = target: T2, Serine/threonine-protein kinase pim-1 (Homo sapiens, UniProt P11309); test: Inhibition of human PIM1 using FITC-(AHX)RSRHSSYPAGT-COOH as substrate after 90 mins by mobility shift assay in presence of 50 uM ATP
Target sequence in this assay (P11309 whole entry): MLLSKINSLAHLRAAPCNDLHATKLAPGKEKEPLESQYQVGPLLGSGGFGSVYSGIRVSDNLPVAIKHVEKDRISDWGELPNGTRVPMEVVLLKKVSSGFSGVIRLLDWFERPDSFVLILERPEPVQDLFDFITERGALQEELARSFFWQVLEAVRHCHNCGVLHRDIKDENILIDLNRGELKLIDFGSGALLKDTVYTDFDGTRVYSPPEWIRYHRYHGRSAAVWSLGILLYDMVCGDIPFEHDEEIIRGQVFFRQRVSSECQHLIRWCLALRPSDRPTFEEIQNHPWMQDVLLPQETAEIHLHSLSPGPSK

[6] = target: T3, Serine/threonine-protein kinase pim-2 (Homo sapiens, UniProt Q9P1W9); test: Inhibition of human PIM2 using FITC-(AHX)RSRHSSYPAGT-COOH as substrate after 90 mins by mobility shift assay in presence of 50 uM ATP
Target sequence in this assay (Q9P1W9 whole entry): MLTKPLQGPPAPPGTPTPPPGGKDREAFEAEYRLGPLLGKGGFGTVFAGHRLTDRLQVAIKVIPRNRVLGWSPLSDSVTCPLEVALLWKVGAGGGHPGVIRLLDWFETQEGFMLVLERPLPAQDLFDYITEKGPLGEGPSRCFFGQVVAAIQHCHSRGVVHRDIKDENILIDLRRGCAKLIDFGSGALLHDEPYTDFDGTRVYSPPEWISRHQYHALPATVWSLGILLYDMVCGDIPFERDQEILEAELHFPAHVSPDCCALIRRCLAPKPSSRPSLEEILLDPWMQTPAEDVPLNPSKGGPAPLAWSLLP

[7] = target: T1, Serine/threonine-protein kinase pim-3; test: Inhibition of human PIM3 using FITC-(AHX)RSRHSSYPAGT-COOH as substrate after 90 mins by mobility shift assay in presence of 5 mM ATP
[8] = target: T3, Serine/threonine-protein kinase pim-2; test: Inhibition of human PIM2 using FITC-(AHX)RSRHSSYPAGT-COOH as substrate after 90 mins by mobility shift assay in presence of 5 mM ATP
Target sequence in this assay (Q9P1W9 whole entry): as the sequence (Q9P1W9 whole entry) above

[9] = target: T2, Serine/threonine-protein kinase pim-1; test: Inhibition of human PIM1 using FITC-(AHX)RSRHSSYPAGT-COOH as substrate after 90 mins by mobility shift assay in presence of 5 mM ATP
Target sequence in this assay (P11309 whole entry): as the sequence (P11309 whole entry) above

[10] = target: Phosphatidylinositol 4,5-bisphosphate 3-kinase catalytic subunit gamma isoform (Homo sapiens) (UniProt P48736); test: Inhibition of PI3Kgamma at 1 uM
[11] = target: T2, Serine/threonine-protein kinase pim-1; conditions: 1 uM
Target sequence in this assay (P11309 whole entry, looked up): as the sequence (P11309 whole entry) above

[12] = target: T1, Serine/threonine-protein kinase pim-3; conditions: 1 uM
[13] = target: T3, Serine/threonine-protein kinase pim-2; conditions: 1 uM
Target sequence in this assay (Q9P1W9 whole entry, looked up): as the sequence (Q9P1W9 whole entry) above

[14] = target: Cyclin-dependent kinase 2 (Homo sapiens) (UniProt P24941); test: Inhibition of CDK2 at 1 uM
[15] = Dissociation constant, pKa of the compound; type: physicochemical

Chain of Voltage-gated inwardly rectifying potassium channel KCNH2 (Q12809 whole entry): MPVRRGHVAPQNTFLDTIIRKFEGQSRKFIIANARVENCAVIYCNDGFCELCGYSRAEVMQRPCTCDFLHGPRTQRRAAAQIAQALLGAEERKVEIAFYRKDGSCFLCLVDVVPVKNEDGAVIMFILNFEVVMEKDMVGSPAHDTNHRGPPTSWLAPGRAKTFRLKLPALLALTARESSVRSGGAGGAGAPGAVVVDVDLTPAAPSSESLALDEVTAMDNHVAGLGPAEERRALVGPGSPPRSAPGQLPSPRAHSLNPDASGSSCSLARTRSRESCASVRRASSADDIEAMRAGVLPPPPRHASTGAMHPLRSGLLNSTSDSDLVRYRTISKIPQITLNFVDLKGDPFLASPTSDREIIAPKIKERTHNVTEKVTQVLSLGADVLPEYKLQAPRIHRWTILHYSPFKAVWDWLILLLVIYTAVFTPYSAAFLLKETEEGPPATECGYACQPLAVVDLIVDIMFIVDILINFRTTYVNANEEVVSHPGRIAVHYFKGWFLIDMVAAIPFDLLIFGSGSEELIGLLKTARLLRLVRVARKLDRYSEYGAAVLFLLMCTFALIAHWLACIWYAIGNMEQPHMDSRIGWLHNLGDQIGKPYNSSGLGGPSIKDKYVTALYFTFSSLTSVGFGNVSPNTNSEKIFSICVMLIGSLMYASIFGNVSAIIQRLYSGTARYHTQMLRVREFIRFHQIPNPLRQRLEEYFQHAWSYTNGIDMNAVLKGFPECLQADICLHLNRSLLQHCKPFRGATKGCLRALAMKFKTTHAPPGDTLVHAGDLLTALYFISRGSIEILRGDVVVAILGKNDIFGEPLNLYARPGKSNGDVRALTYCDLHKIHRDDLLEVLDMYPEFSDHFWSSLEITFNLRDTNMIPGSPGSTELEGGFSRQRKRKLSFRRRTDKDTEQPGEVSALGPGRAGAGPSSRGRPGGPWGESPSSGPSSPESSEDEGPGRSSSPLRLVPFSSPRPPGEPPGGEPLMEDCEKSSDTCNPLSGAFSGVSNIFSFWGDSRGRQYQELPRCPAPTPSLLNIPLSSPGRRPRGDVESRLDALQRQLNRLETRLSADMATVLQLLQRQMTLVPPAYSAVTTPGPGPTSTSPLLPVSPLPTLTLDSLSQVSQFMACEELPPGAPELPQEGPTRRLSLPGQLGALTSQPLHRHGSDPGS
Chain of Phosphatidylinositol 4,5-bisphosphate 3-kinase catalytic subunit gamma isoform (Homo sapiens) (P48736 whole entry, looked up, canonical isoform): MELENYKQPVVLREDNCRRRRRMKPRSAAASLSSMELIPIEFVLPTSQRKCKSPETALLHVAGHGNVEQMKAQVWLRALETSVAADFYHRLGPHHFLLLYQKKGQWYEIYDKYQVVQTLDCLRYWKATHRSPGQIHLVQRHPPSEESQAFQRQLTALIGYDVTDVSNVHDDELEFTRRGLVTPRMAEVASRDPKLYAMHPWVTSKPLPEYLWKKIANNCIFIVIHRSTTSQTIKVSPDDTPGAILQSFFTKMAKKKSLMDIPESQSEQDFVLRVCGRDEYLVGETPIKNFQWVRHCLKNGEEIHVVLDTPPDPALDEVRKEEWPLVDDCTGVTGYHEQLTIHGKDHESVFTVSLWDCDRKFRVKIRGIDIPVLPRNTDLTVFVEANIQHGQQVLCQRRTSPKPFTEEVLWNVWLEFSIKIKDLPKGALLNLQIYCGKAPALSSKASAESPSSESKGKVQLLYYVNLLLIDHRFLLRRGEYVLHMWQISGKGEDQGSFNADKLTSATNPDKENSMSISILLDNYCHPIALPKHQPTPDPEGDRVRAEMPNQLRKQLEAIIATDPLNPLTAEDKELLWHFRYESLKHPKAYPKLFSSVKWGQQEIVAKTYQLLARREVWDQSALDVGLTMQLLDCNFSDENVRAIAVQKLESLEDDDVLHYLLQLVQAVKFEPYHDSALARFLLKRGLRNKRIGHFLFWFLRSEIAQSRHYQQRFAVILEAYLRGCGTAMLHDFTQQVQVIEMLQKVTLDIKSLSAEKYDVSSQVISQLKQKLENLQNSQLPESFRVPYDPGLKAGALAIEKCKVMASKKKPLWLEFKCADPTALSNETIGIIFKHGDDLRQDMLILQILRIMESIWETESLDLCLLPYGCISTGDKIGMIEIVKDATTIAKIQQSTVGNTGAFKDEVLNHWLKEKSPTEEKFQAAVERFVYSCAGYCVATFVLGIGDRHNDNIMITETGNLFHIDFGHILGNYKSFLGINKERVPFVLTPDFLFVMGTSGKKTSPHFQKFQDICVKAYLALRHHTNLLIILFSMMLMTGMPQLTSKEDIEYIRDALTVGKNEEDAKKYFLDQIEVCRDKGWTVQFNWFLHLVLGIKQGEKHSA

Row | microsomal CLint at 2 µM (in vitro) | solubility thermodynamic at 24 h [3] | IC50 [4] | IC50 [5] | IC50 [6] | IC50 [7] | IC50 [8] | IC50 [9] | inhibition [10] | inhibition [11] | inhibition [12] | inhibition [13] | inhibition [14] | pKa [15] | Compound | GI50 [1] | IC50 [2]
1 | < 4.8 µL/min/mg | 263 µM (≈ 99.8 µg/mL) |  |  |  |  |  |  |  |  |  |  |  |  | N[C@@H]1CCCN(c2c(/C=C3\SC(=O)NC3=O)cccc2-c2ccccc2)C1 | 20 nM | > 30000 nM
2 |  | 142 µM (≈ 54 µg/mL) | 4 nM | < 3 nM | 19 nM | 38 nM | 690 nM | 4 nM |  |  |  |  |  |  | N[C@@H]1CCCN(c2c(/C=C3\SC(=O)NC3=O)cccc2-c2ccncc2)C1 | 2280 nM | 
3 |  |  | 390 nM | 160 nM | 160 nM |  |  |  |  |  |  |  |  |  | CCOc1cc(/C=C2\SC(=O)NC2=O)ccc1O |  | 
4 | 3.9 µL/min/mg | > 1000 µM | < 3 nM | < 3 nM | 5 nM | 10 nM | 320 nM | 20 nM |  |  |  |  |  |  | COc1cccc(/C=C2\SC(=O)NC2=O)c1N1CCC[C@@H](N)C1 | 210 nM | 
5 |  |  | 42 nM | 36 nM | 250 nM |  |  |  |  |  |  |  |  |  | N[C@H]1CCN(c2ccccc2/C=C2\SC(=O)NC2=O)C1 |  | 
6 |  |  | < 5 nM | < 6 nM | 25 nM |  |  |  |  |  |  |  |  |  | N[C@H]1CCN(c2c(Cl)cccc2/C=C2\SC(=O)NC2=O)C1 |  | 
7 | 8.8 µL/min/mg |  | < 3 nM | < 3 nM | 5 nM | 20 nM | 310 nM | 20 nM |  |  |  |  |  |  | N[C@@H]1CCCN(c2c(Cl)cccc2/C=C2\SC(=O)NC2=O)C1 | 190 nM | 
8 |  | 782 µM (≈ 237 µg/mL) | 9 nM | 9 nM | 14 nM | 240 nM | 1200 nM | 100 nM |  |  |  |  |  |  | N[C@@H]1CCCN(c2ccccc2/C=C2\SC(=O)NC2=O)C1 | 490 nM | > 30000 nM
9 | < 4.8 µL/min/mg | > 720 µM | < 3 nM | < 3 nM | < 3 nM | 10 nM | 150 nM | 10 nM | inactive | > 50% | > 50% | > 50% | inactive |  | N[C@@H]1CCCN(c2c(Br)cccc2/C=C2\SC(=O)NC2=O)C1 | 100 nM | > 30000 nM
10 |  |  | 730 nM | 890 nM | 4700 nM |  |  |  |  |  |  |  |  | 6.14 | O=C1NC(=O)/C(=C/c2ccccc2)S1 |  | 
11 |  |  | 110 nM | 61 nM | 500 nM |  |  |  |  |  |  |  |  |  | CN(C)C1CCN(c2ccccc2/C=C2\SC(=O)NC2=O)C1 (configuration not stated) |  | 
12 | 12.1 µL/min/mg | > 1000 µM | < 3 nM | < 3 nM | < 4 nM | 6 nM | 160 nM | 10 nM |  |  |  |  |  |  | CCOc1cccc(/C=C2\SC(=O)NC2=O)c1N1CCC[C@@H](N)C1 | 80 nM | 
13 |  |  | 5 nM | 12 nM | 79 nM |  |  |  |  |  |  |  |  |  | N[C@H]1CCN(c2cc(Cl)ccc2/C=C2\SC(=O)NC2=O)C1 |  | 
14 | 6.9 µL/min/mg | 337 µM (≈ 127 µg/mL) | < 3 nM | < 3 nM | < 4 nM | < 3 nM | 140 nM | 8 nM |  |  |  |  |  |  | CC(C)COc1cccc(/C=C2\SC(=O)NC2=O)c1N1CCC[C@@H](N)C1 | 80 nM | 23000 nM
15 |  |  | 3200 nM | 1500 nM | 15000 nM |  |  |  |  |  |  |  |  |  | CC(C)(C)OC(=O)N[C@H]1CCN(c2ccccc2/C=C2\SC(=O)NC2=O)C1 |  | 
16 |  |  | 280 nM | 950 nM | 2500 nM |  |  |  |  |  |  |  |  |  | COc1ccc(/C=C2\SC(=O)NC2=O)cc1OC |  | 
17 | < 4.8 µL/min/mg | 378 µM (≈ 137 µg/mL) | < 3 nM | < 3 nM | < 3 nM | < 3 nM | 50 nM | < 4 nM |  |  |  |  |  |  | CC(C)Oc1cccc(/C=C2\SC(=O)NC2=O)c1N1CCC[C@@H](N)C1 | 20 nM | 

Row | Compound | microsomal CLint at 2 µM (in vitro) | solubility thermodynamic at 24 h [3] | IC50 [4] | IC50 [5] | IC50 [6] | IC50 [7] | IC50 [8] | IC50 [9] | inhibition [10] | inhibition [11] | inhibition [12] | inhibition [13] | inhibition [14] | pKa [15] | GI50 [1] | IC50 [2]
18 | O=C1NC(=O)/C(=C/c2cccc(Cl)c2N2CCNCC2)S1 |  |  | 26 nM | 18 nM | 82 nM |  |  |  |  |  |  |  |  |  |  | 
19 | O=C1NC(=O)/C(=C/c2ccccc2N2CCNCC2)S1 |  |  | 36 nM | 28 nM | 180 nM |  |  |  |  |  |  |  |  |  |  | 
